Laboratory results published in publication PMC12552119, “Tailored structured peptide design with a key-cutting machine approach” (Nature Machine Intelligence, 2025).
Values after ≈ are worked out from the molar mass of the structure shown. Where no end group is shown, it is not given here.

Experiments:
[1] = Mouse weight in the skin abscess model; parameters: species or system CD-1 mice; settings: in vivo
Protocol: The backs of six-week-old female CD-1 mice under anaesthesia were shaved and injured with a superficial linear skin abrasion made with a needle. An aliquot of A. baumannii ATCC 19606 (2 × 10^6 CFU ml^−1; 20 μl) previously grown in LB medium until 0.5 optical density ml^−1 (optical value at 600 nm) and then washed twice with sterile PBS (pH 7.4, 9,391 g for 3 min) was added to the scratched area. Peptides diluted in sterile water at MIC value were administered to the wound area 1 h after the infection. Two and four days after infection animals were euthanized, and the scarified skin was excised, homogenized using a bead beater (25 Hz for 20 min), tenfold serially diluted, and plated on McConkey agar plates for CFU quantification. The experiments were performed using six mice per group. Mice were housed in groups of three and maintained under a 12-h light/dark cycle at 22 °C with humidity controlled at 50%. The skin abscess infection mouse model was revised and approved by University Laboratory Animal Resources from the University of Pennsylvania (protocol 806763).
Figure S6. Cytotoxicity and anti-infective activity of designed peptides. (a) Cytotoxic effects of increasing concentrations ([…]) of each peptide on human embryonic kidney (HEK293T) cells after 24 h of treatment. Mouse weight was monitored throughout the duration of the (b) skin abscess model (4 days total) and the (e) deep thigh infection model (8 days total) to assess potential toxic effects of both the bacterial load and the designed peptides. (c) Schematic of the neutropenic thigh infection mouse model, where the designed peptides were administered intraperitoneally. Anti-infective activity against A. baumannii ATCC 19606 was evaluated 4 days after intraperitoneal peptide administration (n = 6). (d) Four days after intraperitoneal injection, NE2 at its MIC (32 µmol L-1) inhibited by […]
Statistical significance in panel d was determined using one-way ANOVA followed by Dunnett’s test; P values are shown in the graphs. […]

A. baumannii ATCC 19606 [2] = assay: Cytoplasmic-membrane depolarization, DiSC3-5; assay type: cell-based, Acinetobacter baumannii; settings: DiSC3-5 fluorescence, peptides at their MIC, 60 min
Protocol: Fig. 3 Mechanism of action and cytotoxic activity of designed peptides. a, To assess whether the peptides act on bacterial membranes, all active peptides against A. baumannii American Type Culture Collection (ATCC) 19606 were subjected to outer-membrane permeabilization, and peptides active against A. baumannii ATCC 19606 and vancomycin-resistant E. faecalis ATCC 700802 were tested in cytoplasmic-membrane depolarization assays. b, The fluorescent probe NPN was used to assess membrane permeabilization induced by the tested peptides. c,d, The fluorescent probe DiSC3-5 was used to evaluate membrane depolarization caused by the designed peptides in A. baumannii ATCC 19606 (c) and vancomycin-resistant E. faecalis ATCC 700802 (d). […] All experiments were performed in three independent replicates. […]
The cytoplasmic-membrane depolarization assay was performed using the membrane-potential-sensitive dye DiSC3-5. […] Membrane depolarization was then followed by reading changes in the fluorescence (λex = 622 nm, λem = 670 nm) over time for 60 min. The relative fluorescence was calculated using the untreated control (buffer + bacteria + fluorescent dye) as baseline and the following equation was applied to reflect the percentage difference between the baselines and the sample: percentagedifference=100×(fluorescencesample−fluorescenceuntreatedcontrol)/fluorescenceuntreatedcontrol. […]

A. baumannii ATCC 19606 [3] = assay type: cell-based, Acinetobacter baumannii; settings: ATCC 19606, 24 h
Protocol: (§1) Fig. 2 Antimicrobial activity and secondary structure of computationally designed peptides. a, Structure prediction of the synthesized peptides. b, Heatmap of the antimicrobial activities of the peptides against 11 clinically relevant pathogens, including four strains resistant to conventional antibiotics. Briefly, 10^6 bacterial cells and serially diluted peptides (1-64 μmol l^−1) were incubated at 37 °C. One day after treatment, the optical density at 600 nm was measured in a microplate reader to evaluate bacterial growth in the presence of the peptides. MIC values in the heatmap are the mode of the replicates in each condition. c–f, Ternary plots showing the percentage of secondary structure for each peptide (at 50 μmol l^−1) in four different solvents: water (c), 60% TFE in water (d), 10 mmol l^−1 SDS in water (e) and 50% methanol (MeOH) in water (f). Secondary structure fractions were calculated using the BeStSel server. […] An error of one column cannot be fully excluded. / Panel b: AT1, AT2, AT3 and all blank cells print no number and are left out.
In this study, we used the following pathogenic bacterial strains: A. baumannii ATCC 19606, E. coli AIC221 (E. coli MG1655 phnE_2::FRT (control strain for AIC222)) and E. coli AIC222 (E. coli MG1655 pmrA53 phnE_2::FRT (polymyxin resistant; colistin-resistant strain)), Klebsiella pneumoniae ATCC 13883, Pseudomonas aeruginosa PAO1, P. aeruginosa PA14 and Staphylococcus aureus ATCC 12600. All pathogens were grown in Luria–Bertani (LB) broth and on LB agar. Pseudomonas isolation (P. aeruginosa strains) agar plates were exclusively used in the case of Pseudomonas species. In all the experiments, bacteria were inoculated from one isolated colony and grown overnight (16 h) in liquid medium at 37 °C. On the following day, inocula were diluted 1:100 in fresh media and incubated at 37 °C to mid-logarithmic phase.
(§2) Broth microdilution assays[64] were conducted to establish the MIC for each peptide. Peptides were added to untreated polystyrene 96-well microtiter plates and serially diluted twofold in sterile water, ranging from 1 to 64 μmol l^−1. A bacterial inoculum at a concentration of 10^6 CFU ml^−1 in LB medium was then mixed in a 1:1 ratio with the peptide solution. […] Each assay was performed in three independent replicates.

[4] = system: E. faecium ATCC 700221 - VRE; assay type: cell-based; settings: ATCC 700221, 24 h
Protocol: as §1, §2

[5] = system: E. faecalis ATCC 700802 - VRE; assay type: cell-based, Enterococcus faecalis; settings: ATCC 700802, 24 h
Protocol: as §1, §2

HEK293T cells = assay: Cytotoxicity, MTT assay; assay type: cell-based, human; settings: 24 h
Protocol: Fig. 3 Mechanism of action and cytotoxic activity of designed peptides. a, To assess whether the peptides act on bacterial membranes, all active peptides against A. baumannii American Type Culture Collection (ATCC) 19606 were subjected to outer-membrane permeabilization, and peptides active against A. baumannii ATCC 19606 and vancomycin-resistant E. faecalis ATCC 700802 were tested in cytoplasmic-membrane depolarization assays. b, The fluorescent probe NPN was used to assess membrane permeabilization induced by the tested peptides. c,d, The fluorescent probe DiSC3-5 was used to evaluate membrane depolarization caused by the designed peptides in A. baumannii ATCC 19606 (c) and vancomycin-resistant E. faecalis ATCC 700802 (d). […] All experiments were performed in three independent replicates. Panel a created with BioRender.com. Source data TEXT PRINTED IN THE PICTURE: (e) AT1: CC50 (μmol l^-1), HEK293T cells: 2,758 | (e) AT2: CC50 (μmol l^-1), HEK293T cells: 2 × 10^37 | (e) AT3: CC50 (μmol l^-1), HEK293T cells: 269 | (e) AT4: CC50 (μmol l^-1), HEK293T cells: 3,015 | (e) AT5: CC50 (μmol l^-1), HEK293T cells: 6 × 10^41 | (e) NE1: CC50 (μmol l^-1), HEK293T cells: 6 × 10^33 | (e) NE2: CC50 (μmol l^-1), HEK293T cells: 507 | (e) NE3: CC50 (μmol l^-1), HEK293T cells: 655 | (e) NE4: CC50 (μmol l^-1), HEK293T cells: 2 × 10^32 | (e) NG1: CC50 (μmol l^-1), HEK293T cells: 351 | (e) NG2: CC50 (μmol l^-1), HEK293T cells: 1 × 10^35 | (e) NG3: CC50 (μmol l^-1), HEK293T cells: 2 × 10^46 DOUBTS OF THE COPYIST ABOUT THIS PICTURE: AT2, CC50: small exponent, 37 or 57 / AT5, CC50: small exponent, 41 uncertain / NE1, CC50: small exponent, 33 or 38 / NE4, CC50: small exponent, 32 or 52 / NG2, CC50: small exponent, 35 or 36 / NG3, CC50: small exponent, 46 or 48 […]
HEK293T cells were obtained from the ATCC (CRL-3216). The cells were cultured in high-glucose DMEM supplemented with 1% penicillin and streptomycin (antibiotics) and 10% fetal bovine serum and grown at 37 °C in a humidified atmosphere containing 5% CO2.
One day before the experiment, an aliquot of 100 μl of the cells at 50,000 cells ml^−1 was seeded into each well of the cell-treated 96-well plates used in the experiment (that is, 5,000 cells per well)[45]. The attached HEK293T cells were then exposed to increasing concentrations of the peptides (4–64 μmol l^−1) for 24 h. After the incubation period, we performed the (3-(4,5-dimethylthiazol-2-yl)-2,5-diphenyltetrazolium bromide) tetrazolium reduction assay (MTT assay)[45]. […] The resulting salts were then resuspended in hydrochloric acid (0.04 mol l^−1) in anhydrous isopropanol and quantified by spectrophotometric measurements of absorbance at 570 nm. […]

[6] = system: 11 clinically relevant strains, including the ESKAPEE pathogens; assay: MIC against the whole strain panel; assay type: cell-based; settings: 11 strains, peptides 1-64 μmol l^-1
From the text: We synthesized 12 sequences selected for their ease of synthesis and low aggregation potential: five from AT, four from NE and three from NG. We excluded the ND group because its peptides were challenging to synthesize and solubilize. We determined their minimum inhibitory concentrations (MICs) against 11 clinically relevant strains, including the ESKAPEE pathogens. […] Further investigation is needed to confirm this hypothesis.
Fig. 2 Antimicrobial activity and secondary structure of computationally designed peptides. a, Structure prediction of the synthesized peptides. b, Heatmap of the antimicrobial activities of the peptides against 11 clinically relevant pathogens, including four strains resistant to conventional antibiotics. Briefly, 10^6 bacterial cells and serially diluted peptides (1-64 μmol l^−1) were incubated at 37 °C. One day after treatment, the optical density at 600 nm was measured in a microplate reader to evaluate bacterial growth in the presence of the peptides. MIC values in the heatmap are the mode of the replicates in each condition. c–f, Ternary plots showing the percentage of secondary structure for each peptide (at 50 μmol l^−1) in four different solvents: water (c), 60% TFE in water (d), 10 mmol l^−1 SDS in water (e) and 50% methanol (MeOH) in water (f). Secondary structure fractions were calculated using the BeStSel server. […]

For `C[C@H]1COc2c(N3CCN(C)CC3)c(F)cc3c(=O)c(C(=O)O)cn1c23` [Levofloxacin, reference compound], the “mouse weight (day 0 = 100)” value [1] was 105.

With `CC[C@H](C)[C@H](NC(=O)[C@H](CS)NC(=O)[C@H](CC(C)C)NC(=O)[C@H](Cc1c[nH]c2ccccc12)NC(=O)[C@H](C)NC(=O)[C@H](CCSC)NC(=O)[C@H](C)NC(=O)[C@H](Cc1c[nH]cn1)NC(=O)[C@@H]1CCCN1)C(=O)N[C@@H](CCCNC(=N)N)C(=O)N[C@@H](Cc1ccccc1)C(=O)N[C@@H](Cc1c[nH]cn1)C(=O)O` [NE1] the cytoplasmic-membrane depolarization (A. baumannii ATCC 19606 [2]) was “particularly effective”, the MIC (A. baumannii ATCC 19606 [3]) was 32 µM (≈ 47.4 µg/mL) and the MIC [4] was 16 µM (≈ 23.7 µg/mL). The MIC [5] was 8 µM (≈ 11.9 µg/mL).

For FKLCFVLHFVAL [NE4], the MIC [5] was 8 µM.

For HWHAILIHFHFA [AT1], the “CC50, cytotoxic concentration leading to 50% cell lysis” value (“CC50 … to 50% cell lysis” below) (HEK293T cells) was 2758 µM and the “MIC against at least one strain / activity in the panel” value [6] was “inactive”.

Molecule HWHLILHFHACH [NG2] has an MIC [4] of 64 µM and an MIC [5] of 64 µM.

For HWHNKVLHWHIQ [AT3], the “CC50 … to 50% cell lysis” value (HEK293T cells) was 268.9 µM and the “MIC against at least one strain / activity in the panel” value [6] was “inactive”.

For IWHAAVLHFAIS [AT5], the MIC [4] was 32 µM and the MIC [5] was 64 µM.

In the case of WHFHVWIHCIAF [NE3], the MIC [4] is reported as 32 µM, the “CC50 … to 50% cell lysis” value (HEK293T cells) is reported as 655.4 µM and the MIC [5] is reported as 16 µM.
